Where a name gives a salt, the structure may show the parent alone. Read-outs that look alike come from different tables or passages of the source.
How the values were obtained:
physchem = conditions: for Half-Life in Neutral Water at 100° C. / half-life: buffer; for hydrolysis rate / reaction rate (comparison in words): deionized water
Method: In the following examples, various ester hydrolysis reactions were run in the presence of calcium carbonate (CaCO3) to simulate the consumption of filter cake material. The acid evolved in each reaction was measured per unit of time. The acid generated upon hydrolysis was rapidly consumed in a secondary reaction that produced carbon dioxide (CO2). The half-life was secured when half of the CaCO3 was consumed. That is, using PV=nRT, the amount of CaCO3 that would yield approximately 1 liter of CO2 was calculated to be about 4.47 grams. We doubled the amount of CaCO3 (8.94 grams) for the reactions and then calculated the half-life based on the yield of 1 liter of CO2. Unless otherwise specified, all half-life quotations are actually the time required for 4.47 grams of CaCO3 to be consumed.
The following general procedure was used in each of the examples. The closed system reactor shown in FIG. 1 was used to measure the amount of CO2 gas that evolved in each reaction. Water or brine was added to a boiling flask 10, which was heated to 100° C. […] Once the liquid was boiling, a weighed amount of ester was added to flask 10. The amount of ester employed was always in ratio to the water or to the make-up water used to formulate the brine except where commercially available brines were used. Following addition of the ester to the boiling liquid, a reflux condenser 12 was affixed to flask 10. The top of condenser 12 was fixed with an adapter 14 to an inlet tube 18 in a 2-hole rubber stopper 16. The inlet tube 18 was passed through stopper 16, providing a seal. An outlet tube 22 was run from the bottom of a flask 20 to a 1,000 mL graduated cylinder 24. The flask 20 was charged with XP-07 base oil, commercially available from Halliburton Energy Services, Inc. The outlet tube 22 served the purpose of discharging the oil into graduated cylinder 24. The hydrolysis reaction produced acid in flask 10 that reacted with the CaCO3 to produce CO2 gas. The gas displaced the oil in flask 20 into graduated cylinder 24. The rate of CO2 evolution thus could be monitored visually by reading of the amount of oil in graduated cylinder 24 per unit of time.
Solutions containing various esters of lactic acid and of glycerol (i.e., monoacetin, ethyl lactate, triacetin, tripropionin), butyl formate (a control), and BDF-325 diethyleneglycol diformate (a control) in neutral water were prepared and combined with a molar ratio of CaCO3. Hydrolysis reactions were then carried out using the resulting solutions at 100° C. The hydrolysis reactions were monitored, and the half-lives of the esters were compared. The volume of oil displaced by the CO2 gas is plotted as a function of time in FIG. 2. […] The butyl formate to CaCO3 molar ratio was doubled for comparison purposes.
Solutions containing 10 volume % monoacetin, diacetin, and triacetin in deionized water were prepared and combined with a molar ratio of CaCO3. Hydrolysis reactions were then carried out using the resulting solutions at 100° C. The hydrolysis reactions were monitored, and the half-lives of the esters were compared. The volume of oil displaced by the CO2 gas is plotted as a function of time in FIG. 3.

Solubility in water = type: physicochemical
[1] = at 100° C.; cited from earlier work
[2] = hydrolysis in neutral water at 100° C.
[3] = Half-Life in Neutral Water at 100° C.

| Compound | Pseudo First Order Rate Constant (physchem; [2]) | half-life (physchem; [3]) | hydrolysis rate / reaction rate (comparison in words) (physchem; 100° C.) | other results |
| --- | --- | --- | --- | --- |
| CC(=O)OCC(O)CO (centres unmarked) [Monoacetin] | 1.8 × 10^−5 sec.^−1 |  |  | half-life versus targeted range (greater than 10 hours at 100° C. desired) (physchem; 10 volume % in deionized water, 100° C.): within the targeted range; consumed more slowly relative to the other two acetins (physchem; 10 volume % in deionized water, 100° C., vs triacetin and diacetin): 4-5 times; Half-Life in Neutral Water at 100° C. (physchem): 38,400 seconds |
| CCOC(=O)C(C)O (centres unmarked) [Ethyl Lactate] | 2.2 × 10^−5 sec.^−1 | 8.71 h |  | hydrolysis in deionized water and various brines (physchem; 10 volume % in deionized water and various brines, 100° C.): performed consistently; half-life (physchem; half-life): 10 to 11 h |
| CCCCOC=O [butyl formate, reference compound] |  |  | slow reaction rate | solubility in water (Solubility in water): poor solubility |
| CCCCOC(=O)C(C)O (centres unmarked) [Butyl lactate] | 9.03 × 10^−6 sec.^−1 | 21.3 h | faster than that of the butyl formate | solubility in water (Solubility in water): slightly soluble |
| CCCOC(=O)C(C)O (centres unmarked) [Propyl lactate] | 7.4 × 10^−6 sec.^−1 | 25.8 h |  |  |
| CC(=O)OCC(COC(C)=O)OC(C)=O [Triacetin] | 7.04 × 10^−5 sec.^−1 | 2.73 h | very similar |  |
| COC(=O)C(C)O (centres unmarked) [Methyl lactate] | 2.1 × 10^−5 sec.^−1 | 2.71 h |  |  |
| O=COCCOCCOC=O [diethyleneglycol diformate, reference compound] |  |  |  | half-life (physchem; half-life): 0.3 to 0.333 h |
| CCC(=O)OCC(COC(=O)CC)OC(=O)CC [Tripropionin] |  |  |  | Pseudo First Order Rate Constant (physchem): 1.05 × 10^−5 sec.^−1; Half-Life in Neutral Water at 100° C. (physchem): 32,344.83 seconds |
| CC(=O)O [acetic acid] |  |  |  | strength of the acid (pH) [1]: 4.76 |
| CC(=O)OCC(O)COC(C)=O [Diacetin] | 4.75 × 10^−5 sec.^−1 |  | very similar | Half-Life in Neutral Water at 100° C. (physchem): 14,600 seconds |

From patent US20070173416A1, “Well treatment compositions for use in acidizing a well” (Halliburton Energy Services, Inc., priority 2006, published 2007)
